As a reminder, the pEC50 is the negative decadic logarithm of the EC50, by convention in mol/L. In general, inhibition in vivo refers to the change of the read-out against control, counted positive when it falls.

Experiment [1] addresses Sphingosine 1-phosphate receptor 3 (Homo sapiens, UniProt Q99500). As to the kind of experiment: Agonist activity at human S1P3 receptor assessed as stimulation of [35S]GTPgamma binding. The format is functional.
For experiment [2], the species on record is Homo sapiens. As to the kind of experiment: Selectivity ratio of EC50 for human S1P3 receptor to EC50 for human S1P1 receptor.
Experiment [3] deals with Sphingosine 1-phosphate receptor 1 (Homo sapiens, UniProt P21453). As to the kind of experiment: Agonist activity at human S1P1 receptor assessed as stimulation of [35S]GTPgamma binding. Format: functional.
Experiment [4] has as its system Rattus norvegicus. Briefly: Immunosuppressive activity in po dosed LEW rat model assessed as inhibition of WKAH rat spleen cells-induced popliteal lymph node swelling administered qd for 4 days measured at day 4 by host versus graft reaction analysis. To be noted: 96 h, read-out: ID50 (the source's name). Format: functional.
Experiment [5] deals with Rattus norvegicus. Briefly: Immunosuppressive activity in LEW rat model assessed as inhibition of WKAH rat spleen cells-induced popliteal lymph node swelling at 1 mg/kg, po administered qd for 4 days measured at day 4 by host versus graft reaction analysis. Particulars: 96 h. The format is functional.

pEC50: −log10 of the molar value. Bounds are passed on as bounds.

Sequence of Sphingosine 1-phosphate receptor 1 (P21453 whole entry): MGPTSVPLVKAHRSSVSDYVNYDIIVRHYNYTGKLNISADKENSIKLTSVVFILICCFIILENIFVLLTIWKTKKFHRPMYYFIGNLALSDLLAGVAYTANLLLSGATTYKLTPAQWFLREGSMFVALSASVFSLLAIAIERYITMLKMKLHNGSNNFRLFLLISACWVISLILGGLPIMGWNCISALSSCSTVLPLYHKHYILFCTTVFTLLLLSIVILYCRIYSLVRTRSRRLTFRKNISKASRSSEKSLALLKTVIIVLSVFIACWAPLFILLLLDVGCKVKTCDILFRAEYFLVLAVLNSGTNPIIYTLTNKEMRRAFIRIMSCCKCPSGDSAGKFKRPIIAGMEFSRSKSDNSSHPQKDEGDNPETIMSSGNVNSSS
Sequence of Sphingosine 1-phosphate receptor 3 (Q99500 whole entry): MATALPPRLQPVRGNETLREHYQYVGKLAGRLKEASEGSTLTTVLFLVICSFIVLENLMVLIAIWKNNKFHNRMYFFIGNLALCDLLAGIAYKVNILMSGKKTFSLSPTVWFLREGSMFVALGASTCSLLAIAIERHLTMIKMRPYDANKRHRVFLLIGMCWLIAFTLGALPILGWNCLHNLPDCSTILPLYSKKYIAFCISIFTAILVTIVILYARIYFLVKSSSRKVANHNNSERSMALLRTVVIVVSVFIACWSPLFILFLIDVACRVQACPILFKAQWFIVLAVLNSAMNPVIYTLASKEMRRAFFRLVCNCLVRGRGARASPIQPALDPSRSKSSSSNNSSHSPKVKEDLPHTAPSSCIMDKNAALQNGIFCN

With `Cc1cc(-c2nc(-c3csc(CN4CC(C(=O)O)C4)c3)no2)ccc1Oc1ccccc1`, the negative-log EC50 (pEC50) in experiment [1] is 5.52; in experiment [3], 7.68. Further, the Ratio EC50 in experiment [2] was 142.
As for `CCc1cc(-c2noc(-c3ccc(Oc4ccccc4)cc3)n2)sc1CN1CC(C(=O)O)C1`, the figures for the pEC50 in experiment [1] and in experiment [3] were < 4.70 and 7.92, respectively. Moreover, the Ratio EC50 in experiment [2] is > 1670.
Take `CCc1cc(CN2CC(C(=O)O)C2)sc1-c1noc(-c2ccc(Oc3ccccc3)c(F)c2)n1`: the ED50 in experiment [4] is 0.142 mg/kg. Moreover, the pEC50 is < 4.70 in experiment [1] and 8.30 in experiment [3].
As for `CCCc1cc(CN2CC(C(=O)O)C2)sc1-c1noc(-c2ccc(Oc3ccccc3)cc2)n1`, the negative-log EC50 (pEC50) in experiment [1] is 4.89; in experiment [3] it was 7.52. Further, the Ratio EC50 in experiment [2] came to 433.
Consider `CCCCc1ccccc1Oc1ccc(-c2nc(-c3sc(CN4CC(C(=O)O)C4)cc3CC)no2)cc1`, for which the pEC50 in experiment [1] is < 4.70; in experiment [3] it was 8.05. For the same molecule, the inhibition in vivo at 1 mg/kg in experiment [5] stood at 66%.
On to `O=C(O)C1CN(Cc2ccc(-c3noc(-c4cc(-c5ccccc5)c(C(F)(F)F)s4)n3)cc2)C1`, for which the pEC50 was 5.80 in experiment [1] and 8.38 in experiment [3]. Besides, the Ratio EC50 in experiment [2] came out at 380.
In the case of `O=C(O)C1CN(Cc2cc(-c3noc(-c4cc(-c5ccccc5)c(C(F)(F)F)s4)n3)cs2)C1`, the values for the pEC50 in experiment [1] and in experiment [3] were 6.10 and 8.19, respectively. In experiment [2], the Ratio EC50 amounted to 123.
Take `Cc1cc(-c2noc(-c3ccc(Oc4ccccc4)cc3)n2)sc1CN1CC(C(=O)O)C1`: the pEC50 in experiment [1] is < 4.70; in experiment [3], 7.60. In addition, the Ratio EC50 in experiment [2] is > 800.
On to `CCc1cc(CN2CC(C(=O)O)C2)sc1-c1noc(-c2ccc(Oc3ccccc3)c(Cl)c2)n1`, for which the negative-log EC50 (pEC50) in experiment [1] was < 4.70; in experiment [3], 8.30. Besides, the inhibition in vivo at 1 mg/kg in experiment [5] is 49%.
For the molecule `Cc1ccccc1Oc1ccc(-c2nc(-c3csc(CN4CC(C(=O)O)C4)c3)no2)cc1`, the pEC50 was 5.70 in experiment [1] and 7.46 in experiment [3]. For the same molecule, the Ratio EC50 in experiment [2] was 57.
Regarding `CCc1cc(CN2CC(C(=O)O)C2)sc1-c1noc(-c2ccc(Oc3ccccc3)cc2)n1`, the ED50 in experiment [4] is 0.407 mg/kg. Further, the pEC50 in experiment [1] was < 4.70; in experiment [3], 8.40. Moreover, in experiment [2], the Ratio EC50 is > 5000.
Take `O=C(O)C1CN(Cc2csc(-c3noc(-c4ccc(Oc5ccccc5)cc4)n3)c2)C1`: the negative-log EC50 (pEC50) was < 4.70 in experiment [1] and 7.47 in experiment [3]. Further, the Ratio EC50 in experiment [2] is > 588.
In the case of `CCc1cc(CN2CC(C(=O)O)C2)sc1-c1noc(-c2ccc(Oc3ccccc3OC)cc2)n1`, the figures for the negative-log EC50 (pEC50) in experiment [1] and in experiment [3] were 4.82 and 8.40, respectively. The inhibition in vivo at 1 mg/kg in experiment [5] is 74%.
Turning to `CCc1cc(CN2CC(C(=O)O)C2)sc1-c1noc(-c2ccc(Oc3ccccc3F)cc2)n1`, the ED50 in experiment [4] worked out at 0.369 mg/kg. Also, the pEC50 in experiment [1] was < 4.70; in experiment [3] it was 8.07.
`O=C(O)C1CN(Cc2cc(-c3noc(-c4cccc(-c5ccccc5)c4)n3)cs2)C1`: the pEC50 in experiment [1] was < 4.70; in experiment [3], 6.07. For the same molecule, the Ratio EC50 in experiment [2] was > 23.
In the case of `CCc1cc(CN2CC(C(=O)O)C2)sc1-c1noc(-c2ccc(Oc3ccccc3Cl)cc2)n1`, the ED50 in experiment [4] stood at 0.461 mg/kg. Further, the negative-log EC50 (pEC50) in experiment [1] was < 4.70; in experiment [3], 8.19.
For the molecule `CCc1cc(CN2CC(C(=O)O)C2)sc1-c1noc(-c2ccc(Oc3ccccc3)c(OC)c2)n1`, the pEC50 in experiment [1] was < 4.70; in experiment [3] it was 7.85.
`Cc1ccc(Oc2ccc(-c3nc(-c4csc(CN5CC(C(=O)O)C5)c4)no3)cc2)cc1`: the pEC50 in experiment [1] was 4.92; in experiment [3], 6.96. In experiment [2], the Ratio EC50 was found to be 109.
In the case of `CC(C)c1cc(CN2CC(C(=O)O)C2)sc1-c1noc(-c2ccc(Oc3ccccc3)cc2)n1`, the negative-log EC50 (pEC50) in experiment [1] is 4.82; in experiment [3], 7.12. Besides, in experiment [2], the Ratio EC50 was determined as 200.
For the molecule `CCc1cc(CN2CC(C(=O)O)C2)sc1-c1noc(-c2ccc(Oc3ccccc3)c(C)c2)n1`, the results for the negative logarithm of the EC50 (pEC50) in experiment [1] and in experiment [3] were 5.22 and 8.12, respectively.
`CCc1cc(CN2CC(C(=O)O)C2)sc1-c1noc(-c2ccc(Oc3ccccc3C)cc2)n1`: the results for the negative logarithm of the EC50 (pEC50) in experiment [1] and in experiment [3] were 5.35 and 8.52, respectively. Also, the inhibition in vivo at 1 mg/kg in experiment [5] amounted to 35%.
Consider `CCCOc1ccc(-c2nc(-c3csc(CN4CC(C(=O)O)C4)c3)no2)cc1`, for which the pEC50 in experiment [1] is < 4.70; in experiment [3], 7.22. The Ratio EC50 in experiment [2] was > 333.
Take `Cc1cc(CN2CC(C(=O)O)C2)sc1-c1noc(-c2ccc(Oc3ccccc3)cc2)n1`: the negative logarithm of the EC50 (pEC50) was < 4.70 in experiment [1] and 7.96 in experiment [3]. In addition, the Ratio EC50 in experiment [2] was > 1820.
For `Cc1cccc(Oc2ccc(-c3nc(-c4csc(CN5CC(C(=O)O)C5)c4)no3)cc2)c1` the same measures were < 4.70, 6.70 and > 100.
In the case of `CCCc1ccccc1Oc1ccc(-c2nc(-c3sc(CN4CC(C(=O)O)C4)cc3CC)no2)cc1`, the values for the negative-log EC50 (pEC50) in experiment [1] and in experiment [3] were < 4.70 and 7.89, respectively. Also, the inhibition in vivo at 1 mg/kg in experiment [5] was 56%.
For the molecule `O=C(O)C1CN(Cc2cc(-c3noc(-c4ccc(Oc5ccccc5)cc4)n3)cs2)C1`, the negative logarithm of the EC50 (pEC50) in experiment [1] is 5.34; in experiment [3] it was 8.07. In experiment [2], the Ratio EC50 was 541.
Take `O=C(O)C1CN(Cc2cc(-c3noc(-c4ccc(OCc5ccccc5)cc4)n3)cs2)C1`: the negative-log EC50 (pEC50) in experiment [1] and in experiment [3] was < 4.70 throughout.
`CCc1ccccc1Oc1ccc(-c2nc(-c3sc(CN4CC(C(=O)O)C4)cc3CC)no2)cc1`: the pEC50 in experiment [1] was 5.00; in experiment [3] it was 8.19. Moreover, in experiment [5], the inhibition in vivo at 1 mg/kg is 62%.
Regarding `Cc1cc(Oc2ccccc2)ccc1-c1nc(-c2csc(CN3CC(C(=O)O)C3)c2)no1`, the pEC50 in experiment [1] was < 4.70; in experiment [3], 6.22. In addition, the Ratio EC50 in experiment [2] was > 33.
Consider `O=C(O)C1CN(Cc2ccc(-c3noc(-c4ccc(Oc5ccccc5)cc4)n3)s2)C1`, for which the pEC50 in experiment [1] is 6.05; in experiment [3], 9.00. Also, the Ratio EC50 in experiment [2] came to 900.
Consider `O=C(O)C1CN(Cc2cc(-c3noc(-c4ccc(-c5ccccc5)cc4)n3)cs2)C1`, for which the pEC50 in experiment [1] was < 4.70; in experiment [3], 7.52. In experiment [2], the Ratio EC50 was > 666.
In the case of `CCc1cc(CN2CC(C(=O)O)C2)sc1-c1noc(-c2ccc(Oc3ccccc3C(C)C)cc2)n1`, the figures for the negative-log EC50 (pEC50) in experiment [1] and in experiment [3] were 4.96 and 8.35, respectively.

For the origin of these results see ChEMBL document CHEMBL1949506, “Discovery of CS-2100, a potent, orally active and S1P3-sparing S1P1 agonist” (Bioorg Med Chem Lett, 2012).
